The values below come from BindingDB's records for doi:10.1016/j.bmc.2012.07.032 (Takeda Pharmaceutical, 2012).

A short description of the experiment: Inhibition of VEGFR2 in HUVEC assessed as reduction of VGF-stimulated cell proliferation after 5 days.

Regarding `CN(c1ccc(F)c(NC(=O)c2cccc(OC(C)(C)C#N)c2Cl)c1)c1ccc2nc(NC(=O)C3CC3)sc2n1`, the IC50 is 1.2 nM.

The term IC50 denotes the concentration at which inhibition is half-maximal.
